This note sets out measurements from patent publication US11034650B2, “Compounds useful for treating a Mannheimia haemolytica or Histophilus somni infection” (Intervet Inc., priority 2016, dated 2021).

Assay type in all cases: cell-based
In assay [1] the test system is Mannheimia haemolytica MH 13093 (XB0472-6014.1, BRD field isolate). Description: MIC, broth-microdilution (CLSI VET01-A4), strain MH 13093. To be noted: Mannheimia haemolytica strain MH 13093, broth-microdilution; unit assumed. A digest of the protocol:
(§1)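 Growth inhibition is scored visually on a doubling dilution series. The reported MIC corresponds to the lowest concentration free of turbidity, with results assessed under CLSI VET01-S3.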
(In broth dilution the organism is exposed to a series of concentrations in liquid medium.)

Assay [2] deals with Mannheimia haemolytica MH 6357 (M7/2, reference strain, cattle infection strain). Description: MIC, broth-microdilution (CLSI VET01-A4), strain MH 6357. To be noted: Mannheimia haemolytica strain MH 6357, broth-microdilution; unit assumed. A digest of the protocol: as §1
Assay [3] concerns Pasteurella multocida PM 12080 (IV102277-0093, BRD field isolate). Description: MIC, broth-microdilution (CLSI VET01-A4), strain PM 12080. To be noted: Pasteurella multocida strain PM 12080, broth-microdilution; unit assumed. A digest of the protocol:
as §1

In assay [4] the test system is Pasteurella multocida PM 6267 (P 2225 (L386), reference strain, mouse infection strain). Description: MIC, broth-microdilution (CLSI VET01-A4), strain PM 6267. Conditions: Pasteurella multocida strain PM 6267, broth-microdilution; unit assumed. A digest of the protocol: as §1
Assay [5] deals with Mannheimia haemolytica MH 10720 (154, BRD field isolate). In words: MIC, broth-microdilution (CLSI VET01-A4), strain MH 10720. Conditions: Mannheimia haemolytica strain MH 10720, broth-microdilution; unit assumed. A digest of the protocol:
as §1

For assay [6], the system named is Mannheimia haemolytica MH 6374 (ATCC 33396, reference strain). Description: MIC, broth-microdilution (CLSI VET01-A4), strain MH 6374. Conditions: Mannheimia haemolytica strain MH 6374, broth-microdilution; unit assumed. A digest of the protocol:
as §1

In assay [7] the test system is Mannheimia haemolytica MH 12587 (1071, BRD field isolate, macrolide-resistance: erm+, E+). In words: MIC, broth-microdilution (CLSI VET01-A4), strain MH 12587. Conditions: Mannheimia haemolytica strain MH 12587, broth-microdilution; unit assumed. A digest of the protocol:
as §1

Assay [8] concerns Pasteurella multocida PM 10775 (080130003051, BRD field isolate). In words: MIC, broth-microdilution (CLSI VET01-A4), strain PM 10775. Conditions: Pasteurella multocida strain PM 10775, broth-microdilution; unit assumed. A digest of the protocol: as §1
For assay [9], the system named is Pasteurella multocida PM 6391 (ATCC 43137, reference strain). Description: MIC, broth-microdilution (CLSI VET01-A4), strain PM 6391. To be noted: Pasteurella multocida strain PM 6391, broth-microdilution; unit assumed. A digest of the protocol:
as §1

Assay [10] deals with Mannheimia haemolytica MH 13065 (XB0446-6003.9, BRD field isolate). In words: MIC, broth-microdilution (CLSI VET01-A4), strain MH 13065. To be noted: Mannheimia haemolytica strain MH 13065, broth-microdilution; unit assumed. A digest of the protocol:
as §1

Converted amounts (≈) assume the structure as drawn.

Compound `COCCNCc1ccc(C#Cc2ccc(C(=O)N[C@H](C(=O)NO)C(C)(C)S(C)(=O)=O)cc2)cn1` [Compound 349] registered an MIC MH 13093 in assay [1] of 3.1 µg/mL (≈ 6.17 µM). The compound further displayed an MIC MH 6357 in assay [2] of 1.6 µg/mL (≈ 3.18 µM). The MIC PM 12080 in assay [3] was determined as 0.4 µg/mL (≈ 0.796 µM). Moreover, in assay [4], the MIC PM 6267 was determined as 1.6 µg/mL (≈ 3.18 µM). Also, the MIC MH 10720 in [5] is 0.8 µg/mL (≈ 1.59 µM). For the same compound, the MIC MH 6374 in [6] worked out at 3.1 µg/mL (≈ 6.17 µM). The same compound showed an MIC MH 12587 in assay [7] of 6.3 µg/mL (≈ 12.5 µM). Moreover, the MIC PM 10775 in assay [8] is ≤ 0.1 µg/mL. This compound had an MIC PM 6391 in [9] of 0.8 µg/mL (≈ 1.59 µM). In [10], this compound had an MIC MH 13065 of 6.3 µg/mL (≈ 12.5 µM).

On to `CC(C)(C(NC(=O)c1ccc(C#Cc2ccc(CN3CCOCC3)nc2)cc1)C(=O)NO)S(C)(=O)=O` (stereo not drawn) [Compound 350], for which the MIC MH 13093 in [1] was 6.3 µg/mL (≈ 12.2 µM). In [2], this compound showed an MIC MH 6357 of 6.3 µg/mL (≈ 12.2 µM). The compound further showed an MIC PM 12080 in assay [3] of 0.4 µg/mL (≈ 0.777 µM). For the same compound, in assay [4], the MIC PM 6267 was 6.3 µg/mL (≈ 12.2 µM). The compound further yielded an MIC MH 10720 in assay [5] of 1.6 µg/mL (≈ 3.11 µM). Also, the MIC MH 6374 in assay [6] was determined as 6.3 µg/mL (≈ 12.2 µM). Also, the MIC MH 12587 in assay [7] is 12.5 µg/mL (≈ 24.3 µM). Besides, the MIC PM 10775 in assay [8] is ≤ 0.1 µg/mL. The compound also yielded an MIC PM 6391 in assay [9] of 0.8 µg/mL (≈ 1.55 µM). In addition, in assay [10], the MIC MH 13065 was determined as 6.3 µg/mL (≈ 12.2 µM).

The compound `CC(C)([C@H](NC(=O)c1ccc(C#Cc2ccc(CNCc3ccccc3)nc2)cc1)C(=O)NO)S(C)(=O)=O` [Compound 351] came in with an MIC MH 13093 in assay [1] of 0.8 µg/mL (≈ 1.5 µM). The compound further displayed an MIC MH 6357 in assay [2] of 0.4 µg/mL (≈ 0.748 µM). In addition, the MIC PM 12080 in [3] was ≤ 0.1 µg/mL. For the same compound, the MIC PM 6267 in assay [4] was 0.4 µg/mL (≈ 0.748 µM). In [5], the MIC MH 10720 was ≤ 0.1 µg/mL. The compound further returned an MIC MH 6374 in [6] of 0.4 µg/mL (≈ 0.748 µM). Also, the MIC MH 12587 in assay [7] was determined as 1.6 µg/mL (≈ 2.99 µM). In [8], the MIC PM 10775 was ≤ 0.1 µg/mL. Also, the MIC PM 6391 in assay [9] came out at 0.4 µg/mL (≈ 0.748 µM). In addition, the MIC MH 13065 in assay [10] is 1.6 µg/mL (≈ 2.99 µM).

As to `COc1ccc(CNCc2ccc(C#Cc3ccc(C(=O)N[C@H](C(=O)NO)C(C)(C)S(C)(=O)=O)cc3)cn2)cc1` [Compound 352], the MIC MH 13093 in [1] is 1.6 µg/mL (≈ 2.83 µM). For the same compound, the MIC MH 6357 in [2] came to 0.8 µg/mL (≈ 1.42 µM). The MIC PM 12080 in assay [3] came to 0.2 µg/mL (≈ 0.354 µM). Further, the MIC PM 6267 in [4] worked out at 0.8 µg/mL (≈ 1.42 µM). The compound also yielded an MIC MH 10720 in [5] of 0.2 µg/mL (≈ 0.354 µM). Besides, the MIC MH 6374 in assay [6] worked out at 0.8 µg/mL (≈ 1.42 µM). For the same compound, the MIC MH 12587 in [7] was found to be 3.1 µg/mL (≈ 5.49 µM). Also, the MIC PM 10775 in [8] is ≤ 0.1 µg/mL. The MIC PM 6391 in [9] is 0.4 µg/mL (≈ 0.708 µM). In [10], this compound showed an MIC MH 13065 of 1.6 µg/mL (≈ 2.83 µM).

In turn, `CC(C)([C@H](NC(=O)c1ccc(C#Cc2ccc(CNCc3ccccn3)nc2)cc1)C(=O)NO)S(C)(=O)=O` [Compound 353] had an MIC MH 13093 in assay [1] of 6.3 µg/mL (≈ 11.8 µM). The same compound returned an MIC MH 6357 in assay [2] of 3.1 µg/mL (≈ 5.79 µM). In [3], this compound registered an MIC PM 12080 of 0.8 µg/mL (≈ 1.49 µM). The compound further displayed an MIC PM 6267 in assay [4] of 3.1 µg/mL (≈ 5.79 µM). In assay [5], this compound registered an MIC MH 10720 of 0.8 µg/mL (≈ 1.49 µM). In addition, the MIC MH 6374 in [6] is 6.3 µg/mL (≈ 11.8 µM). This compound also had an MIC MH 12587 in assay [7] of 12.5 µg/mL (≈ 23.3 µM). In [8], the MIC PM 10775 stood at 0.4 µg/mL (≈ 0.747 µM). In assay [9], this compound came in with an MIC PM 6391 of 1.6 µg/mL (≈ 2.99 µM). Moreover, in assay [10], the MIC MH 13065 is 6.3 µg/mL (≈ 11.8 µM).

`CC(C)([C@H](NC(=O)c1ccc(C#Cc2ccc(CNCc3ccco3)nc2)cc1)C(=O)NO)S(C)(=O)=O` [Compound 354]: in assay [1], the MIC MH 13093 worked out at 0.8 µg/mL (≈ 1.52 µM). The compound further registered an MIC MH 6357 in assay [2] of 0.4 µg/mL (≈ 0.762 µM). Further, the MIC PM 12080 in assay [3] was 0.2 µg/mL (≈ 0.381 µM). Besides, the MIC PM 6267 in assay [4] stood at 0.8 µg/mL (≈ 1.52 µM). The compound also showed an MIC MH 10720 in [5] of 0.2 µg/mL (≈ 0.381 µM). In addition, in assay [6], the MIC MH 6374 came out at 0.8 µg/mL (≈ 1.52 µM). Also, in assay [7], the MIC MH 12587 was determined as 1.6 µg/mL (≈ 3.05 µM). The MIC PM 10775 in assay [8] was ≤ 0.1 µg/mL. For the same compound, in [9], the MIC PM 6391 was found to be 0.4 µg/mL (≈ 0.762 µM). The compound further registered an MIC MH 13065 in assay [10] of 1.6 µg/mL (≈ 3.05 µM).
